# Values of other authors as cited in patent US20230172943A1 (Mylan Specialty L.P., priority 2020, published 2023).
# Details: orally delivered, humans
smiles,measurement,value
"Cc1cnc(NC(=O)C2=C(O)c3ccccc3S(=O)(=O)N2C)s1 [meloxicam, 4-hydroxy-2-methyl-N-(5-methyl-2-thiazolyl)-2H-1,2-benzothiazine-3-carboxamide-1,1-dioxide]",Tmax (time to reach maximum concentration),4 to 6 h
same,time to reach the therapeutic concentration that enables the onset of action,2 to 3 h
